Experimental data: publication PMC6792352, “Limited Chemical Structural Diversity Found to Modulate Thyroid Hormone Receptor in the Tox21 Chemical Library” (Environmental Health Perspectives, 2019)
Structures can show the parent of a compound that is named as a salt.

Test: in vitro
Conditions: rat, gh3-tre-luc cells, AC50 (uM) modified / 1000
Compound `N=C(N)NCCCCCCC(=O)NC(O)C(=O)NCCCCNCCCN` (stereo not drawn) [Gusperimus trihydrochloride] has a CC50 at 24 h of over 50 µM. `Oc1c(Br)c(Br)c(Br)c(Br)c1Br` [Pentabromophenol] showed a CC50 at 24 h of 33.5 µM. With `CCN(CC)C(=O)N1CCN(C)CC1` [Diethylcarbamazine citrate] the CC50 at 24 h was over 20 µM. Work on `CC(C)COC(=O)c1ccc(O)cc1` [Isobutylparaben] yielded a CC50 at 24 h of over 90 µM. For `CC(=O)O[C@H]1C[C@@]2(C)[C@@H](C[C@@H](O)[C@H]3[C@@]4(C)CC[C@@H](O)[C@@H](C)[C@@H]4CC[C@@]32C)/C1=C(\CCC=C(C)C)C(=O)O` [Fusidate sodium], the CC50 at 24 h was over 50 µM. Work on `N#Cc1ccc2c(c1)N(CCCN1CCC(O)CC1)c1ccccc1S2` [Periciazine] yielded a CC50 at 24 h of 14.3 µM. For `Brc1ccccc1` [Bromobenzene], the CC50 at 24 h was over 90 µM. Compound `CC(C)C[C@H](NC(=O)[C@@H](O)[C@H](N)Cc1ccccc1)C(=O)O` [Ubenimex hydrochloride] has a CC50 at 24 h of 1.62 µM. `C(=C\c1ccncc1)/c1ccccc1` [4-Styrylpyridine] showed a CC50 at 24 h of over 50 µM. For `O=C1[C@H]2CCCC[C@H]2C(=O)N1CCCCN1CCN(c2nsc3ccccc23)CC1` [Perospirone hydrochloride], the CC50 at 24 h was 21 µM. `NCCS(=O)(=O)O` [l-Taurine] gave a CC50 at 24 h of 29.5 µM. Compound `C=C[C@@H](C)CCC=C(C)C` [(S)-Citronellene] has a CC50 at 24 h of over 90 µM. For `O=C/C=C/c1ccccc1` [3-Phenylprop-2-enal], the CC50 at 24 h was over 90 µM. Compound `CO[C@@H]1[C@H](OC(=O)NC(=O)CCl)CC[C@]2(CO2)[C@H]1[C@@]1(C)O[C@@H]1CC=C(C)C` [o-(Chloroacetylcarbamoyl)fumagillol] has a CC50 at 24 h of over 30 µM. Compound `CCCCCCCCCCCC[N+](C)(C)C` [Dodecyltrimethylammonium chloride] has a CC50 at 24 h of 15.8 µM. With `CCCCc1nc(Cl)c(CO)n1Cc1ccc(-c2ccccc2-c2nn[nH]n2)cc1` [Losartan] the CC50 at 24 h was over 50 µM. `CC(C)N(c1ccccc1)C(C)C` [N,N-Diisopropylaniline] gave a CC50 at 24 h of over 90 µM. `COc1ccc2c(c1)C(=O)N(CCc1ccc(S(=O)(=O)NC(=O)NC3CCCCC3)cc1)C(=O)C2(C)C` [Gliquidone] showed a CC50 at 24 h of over 20 µM. Compound `CCCCCCCN(CC)CCCC(O)c1ccc(NS(C)(=O)=O)cc1` (stereo not drawn) [Ibutilide fumarate] has a CC50 at 24 h of 21.5 µM. With `CCc1c2c(nc3ccc(OC(=O)N4CCC(N5CCCCC5)CC4)cc13)-c1cc3c(c(=O)n1C2)COC(=O)[C@]3(O)CC` [Irinotecan hydrochloride] the CC50 at 24 h was over 50 µM. Compound `COCCOCCOCCOC` [Triethylene glycol dimethyl ether] has a CC50 at 24 h of over 90 µM. For `CN[C@@H](C)Cc1ccccc1` [S-(+)-Methamphetamine hydrochloride], the CC50 at 24 h was over 90 µM. In the case of `C=CCOCC1CO1` (stereo not drawn) [Allyl glycidyl ether], the CC50 at 24 h is reported as over 90 µM. Work on `C[C@@H](O)[C@H]1C(=O)N2C(C(=O)O)=C(SCCN=CN)C[C@H]12` [Imipenem] yielded a CC50 at 24 h of over 20 µM. `NC(=S)C(N)=S` [Dithiooxamide] showed a CC50 at 24 h of over 90 µM. In the case of `Cc1cccc(C)c1OCC(=O)N[C@@H](Cc1ccccc1)[C@@H](O)C[C@H](Cc1ccccc1)NC(=O)[C@H](C(C)C)N1CCCNC1=O` [Lopinavir], the CC50 at 24 h is reported as 24.6 µM. For `O=C(Nc1ncc([N+](=O)[O-])s1)c1cccs1` [Tenonitrozole], the CC50 at 24 h was 30.4 µM. With `CCOC(=O)Cc1cccc2ccccc12` [Ethyl 1-naphthaleneacetate] the CC50 at 24 h was over 90 µM. `CC(O)CC(C)(C)O` (stereo not drawn) [2-Methyl-2,4-pentanediol] gave a CC50 at 24 h of over 90 µM. With `CCC(C)(C)c1cc(-n2nc3ccccc3n2)c(O)c(C(C)(C)CC)c1` [2-(2H-Benzotriazol-2-yl)-4,6-bis(1,1-dimethylpropyl)phenol] the CC50 at 24 h was over 90 µM. In the case of `CCCC(C)C(O)CC` (stereo not drawn) [4-Methyl-3-heptanol], the CC50 at 24 h is reported as over 90 µM. In the case of `CCCOCC(C)OCC(C)O` (stereo not drawn) [Butyl dipropasol solvent], the CC50 at 24 h is reported as over 90 µM. In the case of `O=Cc1ccc(F)cc1` [4-Fluorobenzaldehyde], the CC50 at 24 h is reported as over 90 µM. Work on `Cc1ccc(S(=O)(=O)O)c(C)c1` [Sodium m-xylene-4-sulfonate] yielded a CC50 at 24 h of over 90 µM. Compound `Fc1ccc([C@@H]2CCNC[C@H]2COc2ccc3c(c2)OCO3)cc1` [Paroxetine] has a CC50 at 24 h of 10.7 µM. In the case of `O=S(=O)(O)CC(O)CCl` (stereo not drawn) [Sodium 3-chloro-2-hydroxypropane-1-sulfonate], the CC50 at 24 h is reported as over 90 µM. Work on `C=C1/C(=C\C=C2/CCC[C@]3(C)[C@@H]([C@H](C)/C=C/[C@@H](O)C4CC4)CC[C@@H]23)C[C@@H](O)C[C@@H]1O` [Calcipotriene] yielded a CC50 at 24 h of 34.7 µM. In the case of `CCNc1cc(O)ccc1C` [3-Ethylamino-4-methylphenol], the CC50 at 24 h is reported as over 90 µM. With `CN(C)c1ccc(C=O)cc1` [4-Dimethylaminobenzaldehyde] the CC50 at 24 h was over 90 µM. With `CCC(C)C=O` (stereo not drawn) [2-Methylbutanal] the CC50 at 24 h was over 90 µM. Work on `CC(=NO)C(C)=NO` [Dimethylglyoxime] yielded a CC50 at 24 h of over 90 µM. With `CC1=CC(C)(C)Nc2ccccc21` [1,2-Dihydro-2,2,4-trimethylquinoline] the CC50 at 24 h was over 90 µM. In the case of `Cc1cccc(N)c1` [3-Methylaniline hydrochloride], the CC50 at 24 h is reported as over 90 µM. With `N#C/C(=C1/SCC(c2ccccc2Cl)S1)n1ccnc1` (stereo not drawn) [Lanoconazole] the CC50 at 24 h was over 50 µM. For `CC1(C)C(=O)C(C)(C)C1=O` [2,2,4,4-Tetramethylcyclobutane-1,3-dione], the CC50 at 24 h was over 90 µM. For `COc1ccc(-c2cc(=O)c3c(O)cc(O[C@@H]4O[C@H](CO[C@@H]5O[C@@H](C)[C@H](O)[C@@H](O)[C@H]5O)[C@@H](O)[C@H](O)[C@H]4O)cc3o2)cc1O` [Diosmin], the CC50 at 24 h was over 50 µM. With `C1CCN2C[C@@H]3C[C@@H](CN4CCCC[C@@H]34)[C@H]2C1` [Sparteine] the CC50 at 24 h was over 20 µM. Work on `COC(=O)C(C)N(C(=O)Cc1ccccc1)c1c(C)cccc1C` (stereo not drawn) [Benalaxyl] yielded a CC50 at 24 h of over 90 µM. For `CC1=C(/C=C/C(C)=C/C=C/C(C)=C/C=C/C=C(C)/C=C/C=C(C)/C=C/C2=C(C)C(=O)CCC2(C)C)C(C)(C)CCC1=O` [Canthaxanthin], the CC50 at 24 h was over 50 µM. For `CCCCCCCC/C=C\CCCCCCCC(=O)NCc1ccc(O)c(OC)c1` [Olvanil], the CC50 at 24 h was 8.65 µM. `Oc1ccc2ccc3cccc4ccc1c2c34` [1-Hydroxypyrene] showed a CC50 at 24 h of over 90 µM. `Cc1ccc2ccccc2c1[N+](=O)[O-]` [1-Nitro-2-methylnaphthalene] gave a CC50 at 24 h of over 90 µM. Compound `C=C(C)C1CC=C(C)C(OC(C)=O)C1` (stereo not drawn) [Carvyl acetate] has a CC50 at 24 h of over 90 µM. With `SC1CCCCC1` [Cyclohexanethiol] the CC50 at 24 h was over 100 µM. With `CN1CC(=O)NC1=N` [Creatinine] the CC50 at 24 h was over 50 µM. Compound `O=C(O)CCCCCCCCCCCBr` [12-Bromododecanoic acid] has a CC50 at 24 h of over 90 µM. Compound `COC(=O)c1cc(Oc2ccc(Cl)cc2Cl)ccc1[N+](=O)[O-]` [Bifenox] has a CC50 at 24 h of over 90 µM. In the case of `FC(F)(F)C(F)(F)C(F)(F)C(F)(F)C(F)(F)C(F)(F)F` [Perflexane], the CC50 at 24 h is reported as over 50 µM. `CCN(CC)CCCC(C)Nc1cc(/C=C/c2ccccc2Cl)nc2cc(Cl)ccc12` (stereo not drawn) [Aminoquinol] gave a CC50 at 24 h of 20.1 µM. Work on `CC1=CC=C(C(C)C)CC1` [alpha-Terpinene] yielded a CC50 at 24 h of over 90 µM. In the case of `O=C1C[C@@H]2OCC=C3CN4CC[C@]56c7ccccc7N1[C@H]5[C@H]2[C@H]3C[C@H]46` [Strychnine], the CC50 at 24 h is reported as over 50 µM. For `Nc1ccncc1` [4-Aminopyridine], the CC50 at 24 h was over 90 µM. `CN1C(=O)CC(C)(c2ccccc2)C1=O` (stereo not drawn) [Methsuximide] gave a CC50 at 24 h of over 50 µM. Work on `COC1=C(C(=O)O)N2C(=O)[C@@H](NC(=O)[C@H](N)C3=CCC=CC3)[C@H]2SC1` [Cefroxadine] yielded a CC50 at 24 h of over 50 µM. Compound `COc1ccc(N)c(C)c1` [4-Methoxy-2-methylaniline] has a CC50 at 24 h of over 90 µM. Compound `N#CCCCCC#N` [Hexanedinitrile] has a CC50 at 24 h of over 90 µM. `COc1cccc(N(C)C(=S)Oc2ccc3c(c2)CCCC3)n1` [Liranaftate] showed a CC50 at 24 h of over 50 µM. Compound `C=CC1CC=CCC1` (stereo not drawn) [4-Vinylcyclohexene] has a CC50 at 24 h of over 90 µM. Compound `Cc1nc2ccccn2c(=O)c1CCN1CCC(C(=O)c2ccc(F)cc2)CC1` [Pirenperone] has a CC50 at 24 h of over 50 µM. `CCCCCCCCCCCCI` [1-Iodododecane] showed a CC50 at 24 h of over 90 µM. `O=C(O)Cc1cc(I)c(Oc2ccc(O)c(I)c2)c(I)c1` [Tiratricol] gave a CC50 at 24 h of over 20 µM. With `CC(C)C[C@@H](N)C(=O)O` [D-Leucine] the CC50 at 24 h was over 50 µM. Work on `CCCC(=O)Nc1c(I)cc(I)c(CC(CC)C(=O)O)c1I` (stereo not drawn) [Sodium tyropanoate] yielded a CC50 at 24 h of 26.5 µM. `CCN1C(=O)NC(c2ccccc2)C1=O` (stereo not drawn) [Ethotoin] gave a CC50 at 24 h of over 20 µM. Compound `CC(C)OC(=S)S` [Proxan-sodium] has a CC50 at 24 h of over 90 µM.

Same assay, conditions: rat, gh3-tre-luc cells, AC50 (uM) modified / 1000, Tox21_110001=Tox21_111293; viability, 1 nM T3 present, 24 h
`Clc1ccc(Cl)cc1` [1,4-Dichlorobenzene] gave a CC50 at 24 h of over 50 µM.

Same assay, conditions: rat, gh3-tre-luc cells, AC50 (uM) modified / 1000, Tox21_110001=Tox21_112153; viability, 1 nM T3 present, 24 h
With `CCC(C)(S(=O)(=O)CC)S(=O)(=O)CC` [Sulfonethylmethane] the CC50 at 24 h was over 50 µM.

Same assay, conditions: rat, gh3-tre-luc cells, AC50 (uM) modified / 1000, Tox21_110001=Tox21_200342; viability, 1 nM T3 present, 24 h
With `OCC(Cl)CCl` (stereo not drawn) [2,3-Dichloro-1-propanol] the CC50 at 24 h was over 90 µM.

Same assay, conditions: rat, gh3-tre-luc cells, AC50 (uM) modified / 1000, Tox21_110001=Tox21_200399; viability, 1 nM T3 present, 24 h
For `Clc1ccc(Cl)cc1` [1,4-Dichlorobenzene], the CC50 at 24 h was over 90 µM.

Same assay, conditions: rat, gh3-tre-luc cells, AC50 (uM) modified / 1000, Tox21_110001=Tox21_200857; viability, 1 nM T3 present, 24 h
`NC(N)=[Se]` [Selenourea] gave a CC50 at 24 h of over 90 µM.

Same assay, conditions: rat, gh3-tre-luc cells, AC50 (uM) modified / 1000, Tox21_110001=Tox21_202228; viability, 1 nM T3 present, 24 h
For `CCCN(CCC)c1c([N+](=O)[O-])cc(C(C)C)cc1[N+](=O)[O-]` [Isopropalin], the CC50 at 24 h was 89.1 µM.

Same assay, conditions: rat, gh3-tre-luc cells, AC50 (uM) modified / 1000, Tox21_110001=Tox21_202262; viability, 1 nM T3 present, 24 h
`OCC(O)CCl` (stereo not drawn) [3-Chloro-1,2-propanediol] showed a CC50 at 24 h of over 90 µM.

Same assay, conditions: rat, gh3-tre-luc cells, AC50 (uM) modified / 1000, Tox21_110001=Tox21_300422; viability, 1 nM T3 present, 24 h
`CCCN(CCC)c1c([N+](=O)[O-])cc(C(C)C)cc1[N+](=O)[O-]` [Isopropalin] gave a CC50 at 24 h of 45.3 µM.

Same assay, conditions: rat, gh3-tre-luc cells, AC50 (uM) modified / 1000, Tox21_110001=Tox21_301746; viability, 1 nM T3 present, 24 h
In the case of `CNC=Nc1ccc(C)cc1C` [N'-(2,4-Dimethylphenyl)-N-methylformamidine], the CC50 at 24 h is reported as over 90 µM.
